Assay [1] concerns COS7 cells transfected with MELK and HLA-A*2402. Description: Specific CTL activity against transfected COS7 cells. Type of assay: cell-based. The procedure: (§1) Specifically, peptide-pulsed A24LCL (1×10^4/well) and tumor cell lines (5×10^4/well) were prepared as stimulator cells. Cultured cells in 48 wells, CTL lines and clones were used as responder cells. IFN-gamma ELISPOT assay and IFN-gamma ELISA assay were performed under manufacture procedure.
The cDNA encoding an open reading frame of target gene or HLA-A*2402 was amplified by PCR. The PCR-amplified products were cloned into pCAGGS vector. The plasmids were transfected into COST, which is the target genes and HLA-A24 negative cell line, using lipofectamine 2000 (Invitrogen) according to the manufacturer's recommended procedures. After 2 days from transfection, the transfected cells were harvested with versene (Invitrogen) and used as stimulator cells (5×10^4 cells/well) for CTL activity assay.

For assay [2], the system named is peptide-pulsed A24LCL cells. Description: CTL lines, IFN-gamma ELISA assay. Type of assay: cell-based, human. How it is done:
CTLs were expanded in culture using the method similar to the one described by Riddell et al. (Walter E A et al., N Engl J Med 1995 Oct. 19, 333(16): 1038-44; Riddell S R et al., Nat Med 1996 Feb. 2(2): 216-23). A total of 5×10^4 CTLs were suspended in 25 ml of AIM-V/5% AS medium with 2 kinds of human B-lymphoblastoid cell lines, inactivated by MMC, in the presence of 40 ng/ml of anti-CD3 monoclonal antibody (Pharmingen). One day after initiating the cultures, 120 IU/ml of IL-2 were added to the cultures. The cultures were fed with fresh AIM-V/5% AS medium containing 30 IU/ml of IL-2 on days 5, 8 and 11 (Tanaka H et al., Br J Cancer 2001 Jan. 5, 84(1): 94-9; Umano Y et al., Br J Cancer 2001 Apr. 20, 84(8): 1052-7; Uchida N et al., Clin Cancer Res 2004 Dec. 15, 10(24): 8577-86; Suda T et al., Cancer Sci 2006 May, 97(5): 411-9; Watanabe T et al., Cancer Sci 2005 August, 96(8): 498-506).
as §1

The test system of assay [3] is peptide-pulsed A24LCL cells. Briefly: CTL clones, IFN-gamma ELISA assay. Type of assay: cell-based, human. The settings on record: for IFN-gamma production of CTL clones (ELISA): donor B. How it is done:
The dilutions were made to have 0.3, 1, and 3 CTLs/well in 96 round-bottomed micro titer plate (Nalge Nunc International). CTLs were cultured with 1×10^4 cells/well of 2 kinds of human B-lymphoblastoid cell lines, 30 ng/ml of anti-CD3 antibody, and 125 U/ml of IL-2 in a total of […] of AIM-V Medium containing 5% AS. 50 micro-1/well of IL-2 were added to the medium 10 days later so to reach a final concentration of 125 U/ml IL-2. CTL activity was tested on the 14th day, and CTL clones were expanded using the same method as described above (Uchida N et al., Clin Cancer Res 2004 Dec. 15, 10(24): 8577-86; Suda T et al., Cancer Sci 2006 May, 97(5): 411-9; Watanabe T et al., Cancer Sci 2005 August, 96(8): 498-506).
as §1
(An ELISA detects its analyte on a solid surface through an enzyme-linked reagent.)

Assay [4] deals with peptide-pulsed A24LCL cells. Description: In vitro CTL induction, IFN-gamma ELISPOT assay. Type of assay: cell-based, human. The settings on record: for IFN-gamma production of CTLs (ELISPOT): target cells pulsed with cognate peptide vs not pulsed; for CTL inducibility / CTL activity: in vitro stimulation of T-cells by peptide-loaded DCs; for Immunogenicity compared to MELK-A24-9-87_WT: CTL induction from donors B and C.
Source text: Monocyte-derived dendritic cells (DCs) were used as antigen-presenting cells (APCs) to induce cytotoxic T lymphocyte (CTL) responses against peptides presented on HLA. DCs were generated in vitro as described elsewhere (Nakahara S et al., Cancer Res 2003 Jul. 15, 63(14): 4112-8). Specifically, peripheral blood mononuclear cells (PBMCs) isolated from three healthy donors termed donors A, B and C (HLA-A*2402 positive) by Ficoll-Plaque (Pharmacia) solution were separated by adherence to a plastic tissue culture dish (Becton Dickinson) so as to enrich them as the monocyte fraction. The monocyte-enriched population was cultured in the presence of 1,000 U/ml of granulocyte-macrophage colony-stimulating factor (GM-CSF) (R&D System) and 1,000 U/ml of interleukin (IL)-4 (R&D System) in AIM-V Medium (Invitrogen) containing 2% heat-inactivated autologous serum (AS). After 7 days of culture, the cytokine-induced DCs were pulsed with 20 micro-g/ml of each of the synthesized peptides in the presence of 3 micro-g/ml of beta2-microglobulin for 3 hrs at 37 degrees C. in AIM-V Medium. The generated cells appeared to express DC-associated molecules, such as CD80, CD83, CD86 and HLA class II, on their cell surfaces (data not shown). These peptide-pulsed DCs were then inactivated by X-irradiation (20 Gy) and mixed at a 1:20 ratio with autologous CD8+ T cells, obtained by positive selection with CD8 Positive Isolation Kit (Dynal). These cultures were set up in 48-well plates (Corning); each well contained 1.5×10^4 peptide-pulsed DCs, 3×10^5 CD8+ T cells and 10 ng/ml of IL-7 (R&D System) in 0.5 ml of AIM-V/2% AS medium. 3 days later, these cultures were supplemented with IL-2 (CHIRON) to a final concentration of 20 IU/ml. On days 7 and 14, the T cells were further stimulated with the autologous peptide-pulsed DCs. The DCs were prepared each time by the same way described above. CTLs were tested against peptide-pulsed A24LCL cells after the 3rd round of peptide stimulation on day 21 (Tanaka H et al., Br J Cancer 2001 Jan. 5, 84(1): 94-9; Umano Y et al., Br J Cancer 2001 Apr. 20, 84(8): 1052-7; Uchida N et al., Clin Cancer Res 2004 Dec. 15, 10(24): 8577-86; Suda T et al., Cancer Sci 2006 May, 97(5): 411-9; Watanabe T et al., Cancer Sci 2005 August, 96(8): 498-506).
as §1

Assay [5] deals with tumor cell lines MDA-MB-4355 (MELK+, A24+) and KLM-1 (MELK+, A24+). Briefly: Specific CTL activity against tumor cell lines expressing MELK and HLA-A*2402. Type of assay: cell-based, human. As to conditions: for IFN-gamma production / CTL activity of CTL clone against KLM-1: KLM-1 (MELK+, A24+) compared with KP-1N. How it is done:
(§2) TISI, human leukocyte antigen (HLA)-A*2402 positive B-lymphoblastoid cell line, was purchased from the IHWG Cell and Gene Bank (Seattle, Wash.). COS7, MDA-MB-435S and T47D were purchased from ATCC. KLM-1 and KP-1N were purchased from RIKEN cell bank and JCRB cell bank, respectively.
as §1

Assay [6] concerns T47D (MELK+, A24−) and KP-1N (MELK+, A24−). Description: Specific CTL activity against tumor cell lines expressing MELK but not HLA-A*2402. Type of assay: cell-based, human. The settings on record: T47D and KP-1N (MELK+, A24−). The procedure: as §2, §1
Setting [7] is: donor A, target cells pulsed with cognate peptide vs without peptide pulse.
Where [8] appears, read: donor C, target cells pulsed with MELK-A24-9-87_WT vs irrelevant HIV peptide.
The mark [9] stands for this setting: donor B, target cells pulsed with MELK-A24-9-87_WT vs irrelevant HIV peptide.
Setting [10] is: target cells pulsed with MELK-A24-9-87_WT vs irrelevant HIV peptide.

“Also recorded” adds a separate entry of the source.

Here are results for 8 sequences from US8871719B2, “Modified MELK peptides and vaccines containing the same” (OncoTherapy Science, Inc., priority 2010, dated 2014).

As for EYCPGGELF [MELK-A24-9-87_WT], in assay [1] (COS7 cells expressing either HLA-A*2402 or MELK), the “Specific CTL activity of CTL clone against controls” value was “no significant specific CTL activity”. Also, in assay [1] (COS7 cells transfected with both MELK and HLA-A*2402), the “Specific CTL activity of CTL clone” value is “potent CTL activity; also recorded: specific CTL activity”. The “IFN-gamma production of CTL lines (ELISA)” value in assay [2] (setting [7]) was “potent IFN-gamma production”; in assay [2] (setting [8]) it was “no IFN-gamma production; also recorded: CTL line was not established”. In assay [3] (donor A, target cells pulsed with cognate peptide vs not pulsed), the “IFN-gamma production of CTL clone (ELISA)” value is listed as “potent IFN-gamma production”. The “IFN-gamma production of CTLs (ELISPOT)” value in assay [4] (donor A) is “potent IFN-gamma production; also recorded: potential IFN-gamma productive ability”; in assay [4] (donor B), “no specific IFN-gamma production was detected; also recorded: peptide specific IFN-gamma production was not detected”. Moreover, the “CTL inducibility / CTL activity” value in assay [4] is “significant and specific CTL activity”.
Consider EYCPGGNLF [MELK-A24-9-87_7N], for which the “IFN-gamma production of CTL lines (ELISA)” value in assay [2] (setting [9]) was “potent IFN-gamma production”; in assay [2] (setting [8]) it was “peptide specific IFN-gamma production; also recorded: IFN-gamma production was detected”. In addition, the “IFN-gamma production / CTL activity of CTL clone against KLM-1” value in assay [5] is given as “specific CTL activity”. Moreover, the “CTL activity of CTL line against tumor cell lines” value in assay [5] (MDA-MB-4355 and KLM-1 (MELK+, A24+)) is given as “potent CTL activity; also recorded: specific CTL activity”; in assay [6] it was “without showing CTL activity”. In assay [3] (setting [10]), the “IFN-gamma production of CTL clones (ELISA)” value is given as “potent IFN-gamma production”. The “IFN-gamma production of CTL clone (ELISA)” value in assay [3] (setting [8]) is “potent IFN-gamma production”. The “Immunogenicity compared to MELK-A24-9-87_WT” value in assay [4] is “superior immunogenicity”. Also, the “IFN-gamma production of CTLs (ELISPOT)” value in assay [4] (donor B) and in assay [4] (donor C) was “potent IFN-gamma production; also recorded: potential IFN-gamma productive ability” each time. Besides, the “CTL inducibility / CTL activity” value is “significant and specific CTL activity; also recorded: CTLs were successfully established” in assay [4]; “particularly strong CTL inducibility” in assay [4] (listed as 44).
On to LYVLMCGFL [SEQ ID NO: 1], for which, in assay [2] (setting [7]), the “IFN-gamma production of CTL lines (ELISA)” value is on record as “potent IFN-gamma production”. In addition, in assay [5], the “IFN-gamma production / CTL activity of CTL clone against KLM-1” value is recorded as “no IFN-gamma production”. Further, the “IFN-gamma production of CTL clone (ELISA)” value in assay [3] (donor A, target cells pulsed with cognate peptide vs not pulsed, listed as MELK-A24-9-199) is “potent IFN-gamma production; also recorded: had the ability to recognize the peptide-pulsed target cells”. For the same sequence, the “IFN-gamma production of CTLs (ELISPOT)” value in assay [4] (donor A, listed as MELK-A24-9-199) is on record as “potent IFN-gamma production; also recorded: potential IFN-gamma productive ability”.
Consider EYMPGGELF [MELK-A24-9-87_3M], for which, in assay [2] (setting [9]), the “IFN-gamma production of CTL lines (ELISA)” value is “potent IFN-gamma production”. Further, in assay [3] (setting [10]), the “IFN-gamma production of CTL clones (ELISA)” value is given as “potent IFN-gamma production”. Besides, the “Immunogenicity compared to MELK-A24-9-87_WT” value in assay [4] was “superior immunogenicity”. The “IFN-gamma production of CTLs (ELISPOT)” value in assay [4] (donor B) is “potent IFN-gamma production; also recorded: potential IFN-gamma productive ability”. Also, the “CTL inducibility / CTL activity” value in assay [4] was “significant and specific CTL activity; also recorded: CTLs were successfully established”; in assay [4] (listed as 41) it was “particularly strong CTL inducibility”.
With KYCPGGELF [MELK-A24-9-87_1K], in assay [2] (setting [9]), the “IFN-gamma production of CTL lines (ELISA)” value is “potent IFN-gamma production”. Moreover, in assay [3] (setting [10]), the “IFN-gamma production of CTL clones (ELISA)” value is on record as “potent IFN-gamma production”. Moreover, in assay [4], the “Immunogenicity compared to MELK-A24-9-87_WT” value is “superior immunogenicity”; the “CTL inducibility / CTL activity” value was “significant and specific CTL activity; also recorded: CTLs were successfully established”. For the same sequence, the “IFN-gamma production of CTLs (ELISPOT)” value in assay [4] (donor B) was “potent IFN-gamma production; also recorded: potential IFN-gamma productive ability”. Also, the “CTL inducibility / CTL activity” value in assay [4] (listed as 35) was “particularly strong CTL inducibility”.
On to DYIISQDRL [SEQ ID NO: 2], for which, in assay [4] (donor A, listed as MELK-A24-9-96), the “IFN-gamma production of CTLs (ELISPOT)” value is reported as “typical negative data; also recorded: specific IFN-gamma production was not shown”.
Consider VYKRLVEDIL [SEQ ID NO: 23], for which, in assay [2] (setting [7]), the “IFN-gamma production of CTL lines (ELISA)” value is recorded as “potent IFN-gamma production”. Moreover, the “IFN-gamma production of CTLs (ELISPOT)” value in assay [4] (donor A, listed as MELK-A24-10-637) was “potent IFN-gamma production; also recorded: potential IFN-gamma productive ability”. Also, in assay [4], the “CTL inducibility / CTL activity” value is “significant and specific CTL activity”.
With TANKIFMVL [SEQ ID NO: 21], the “IFN-gamma production of CTLs (ELISPOT)” value in assay [4] (donor A, listed as MELK-A24-9-78) is reported as “potent IFN-gamma production; also recorded: potential IFN-gamma productive ability”.
